This is an account of results in US4138485A, “Phenylalanine derivatives” (Kyowa Hakko Kogyo Kabushiki Kaisha, priority 1976, dated 1979).

One data set in a line: Acute toxicity in mice. To be noted: in vivo, mouse, after one week. How it is done: (§1) (1) Acute toxicity and tonic convulsion in hind paw:
(§2) The acute toxicity and tonic convulsion occured by stimulus by hand touch were determined in the following manner to give the results shown in Table 2.
(a) Acute toxicity in mice:
38 Groups, each consisting of 5 mice (male dd-strain, weight -- 18 to 24 g), were used for the test and control groups. The compounds shown in Table 2 were administered orally or intraperitoneally to the mice. After one week, the survival ratio was measured.

A further data set is described as follows: Acute toxicity in rats. Conditions: in vivo; rat, oral administration, after one week; read-out: Acute Toxicity (LD50), C. How it is done:
as §1, §2
(b) Acute toxicity in rats:
28 Groups, each consisting of 5 rats (male Wistar strain, weight -- 200 g), were used for the test and control groups. The compounds shown in Table 2 were orally administered to the rats. After one week, the survival ratio was measured.

The subject of data set [1] is hyperlipemia induced by Triton. Put plainly: Cholesterol-lowering activity on hyperlipemia induced by Triton in mice. The format is in vivo, mice (male dd-strain). To be noted: Mus musculus, po, 43 h, read-out: Ratio of the reduction of cholesterol. On the procedure: (2) Cholesterol-Lowering activity on hyperlipemia induced by Triton in mice:
38 Groups, each consisting of 9 mice (male dd-strain, weight -- 19 to 21 g), were used for the test and control groups. […] Immediately after the administration and also after 20 hours from the administration of Triton, the mice were orally administered with 100 mg/kg of the compound shown in Table 3. 43 hours after the administration of Triton, the blood samples were collected by decapitation and then the corpuscle was removed by centrifugation. Cholesterol in the serum was determined by Zurkowski's method modified by Shibata (color of the test solution was developed by using sulfoalicyclic acid, acetic acid and sulfuric acid and the optical density of the solution was determined at 620 mμ.

Another data set concerns Cholesterol in the serum. Put plainly: Cholesterol-lowering activity on normal rats of Wistar strain (serum cholesterol, liver weight). The format is in vivo, rats (male Wistar strain). To be noted: continuous administration for 4 days, 0.3% in diet. How it is done:
(3) Cholesteral-lowering activity on normal rats of Wistar strain:
(i) 22 Groups, each consisting of 5 rats (male Wistar strain, weight -- 150 to 180 g) were used for the test and control groups. After this, the blood samples were collected by decapitation and then the corpuscle was removed by centrifugation. Cholesterol in the serum was determined by Zurkowski's method modified by Shibata and also the liver was excised and weighed. The results are shown in Table 4 wherein the ratio of 100% denotes the amount of chloresterol and the weight of the liver of normal rats fed with powdery diet without the addition of the compound.

Where [2] appears, read: oral administration, read-out: Acute Toxicity (LD50), A.
Where [3] appears, read: ip, intraperitoneal administration, read-out: Acute Toxicity (LD50), B.

The structures appear in SMILES notation.

Regarding `Cc1cccc(C)c1CSC(=O)N[C@@H](Cc1ccccc1)C(=O)O` [Compound 24, N-(2,6-dimethylbenzylthiocarbonyl)-L-phenylalanine], the results for the LD50 at 168 h in the data set “Acute toxicity in mice” (setting [2]) and in “Acute toxicity in rats” were above 1000 mg/kg and above 100 mg/kg, respectively. For the same molecule, the inhibition in vivo at 100 mg/kg in data set [1] came out at 34%. The “B - Ratio of decrease of liver weight” value in the data set on Cholesterol in the serum is 15.0%.
Consider `Cc1ccc(CSC(=O)N[C@@H](Cc2ccccc2)C(N)=O)cc1` [Compound 4, N-(4-methylbenzylthiocarbonyl)-L-phenylalanine amide], for which the LD50 at 168 h in “Acute toxicity in mice” (setting [3]) was above 100 mg/kg; in “Acute toxicity in mice” (setting [2]), above 1000 mg/kg; in “Acute toxicity in rats” it was above 100 mg/kg. Besides, the inhibition in vivo at 100 mg/kg in data set [1] is 23%. Moreover, in the data set on Cholesterol in the serum, the “B - Ratio of decrease of liver weight” value is recorded as 6.2%.
For the molecule `O=C(N[C@@H](Cc1ccccc1)C(=O)O)SCc1ccc([N+](=O)[O-])cc1` [Compound 14, N-(4-nitrobenzylthiocarbonyl)-L-phenylalanine], the LD50 at 168 h was above 1000 mg/kg in “Acute toxicity in mice” (setting [2]) and above 100 mg/kg in the data set “Acute toxicity in rats”. The inhibition in vivo at 100 mg/kg in data set [1] turned out to be 66%. In the data set with Cholesterol in the serum, the “B - Ratio of decrease of liver weight” value worked out at 48.0%.
Consider `CCNC(=O)[C@H](Cc1ccccc1)NC(=O)SCc1ccc(Cl)cc1` [Compound 10, N-(4-chlorobenzylthiocarbonyl)-L-phenylalanine ethylamide], for which the LD50 at 168 h in “Acute toxicity in mice” (setting [3]) is above 100 mg/kg; in the data set “Acute toxicity in mice” (setting [2]), above 300 mg/kg; in the data set “Acute toxicity in rats”, above 100 mg/kg. In addition, the inhibition in vivo at 100 mg/kg in data set [1] worked out at 43%.
Regarding `CC(=O)Oc1ccc(CSC(=O)N[C@@H](Cc2ccccc2)C(=O)O)cc1` [Compound 36, N-(4-acetoxybenzylthiocarbonyl)-L-phenylalanine], in the data set “Acute toxicity in mice” (setting [2]), the LD50 at 168 h was above 1000 mg/kg. In addition, in data set [1], the inhibition in vivo at 100 mg/kg came to 83%.
Regarding `Cc1c(C)c(C)c(CSC(=O)N[C@@H](Cc2ccccc2)C(=O)O)c(C)c1C` [Compound 29, N-(2,3,4,5,6-pentamethylbenzylthiocarbonyl)-L-phenylalanine], the median lethal dose (LD50) at 168 h in the data set “Acute toxicity in mice” (setting [2]) is above 1000 mg/kg; in the data set “Acute toxicity in rats”, above 100 mg/kg. The inhibition in vivo at 100 mg/kg in data set [1] amounted to 59%.
For the molecule `O=C(N[C@@H](Cc1ccccc1)C(=O)O)SCc1cccc2ccccc12` [Compound 31, N-(α-naphthylmethylthiocarbonyl)-L-phenylalanine], the LD50 at 168 h in “Acute toxicity in mice” (setting [2]) was above 1000 mg/kg; in “Acute toxicity in rats”, above 100 mg/kg. Moreover, the inhibition in vivo at 100 mg/kg in data set [1] stood at 74%. Moreover, the “B - Ratio of decrease of liver weight” value with Cholesterol in the serum stood at 24.4%.
For the molecule `COC(=O)[C@H](Cc1ccccc1)NC(=O)SCc1ccc([N+](=O)[O-])cc1` [Compound 15, N-(4-nitrobenzylthiocarbonyl)-L-phenylalanine methylester], the LD50 at 168 h in the data set “Acute toxicity in mice” (setting [2]) is above 1000 mg/kg; in “Acute toxicity in rats”, above 100 mg/kg. Further, the inhibition in vivo at 100 mg/kg in data set [1] turned out to be 29%. Also, the “B - Ratio of decrease of liver weight” value with Cholesterol in the serum is recorded as 38.9%.
The like results for `COC(=O)[C@H](Cc1ccccc1)NC(=O)SCc1c(C)cccc1C` [Compound 25] were, in that order, above 1000 mg/kg, above 100 mg/kg, 37% and 45.3%.
`Cc1ccc(CSC(=O)N[C@H](Cc2ccccc2)C(=O)O)cc1` [Compound 34, N-(4-methylbenzylthiocarbonyl)-D-phenylalanine]: the LD50 at 168 h in “Acute toxicity in mice” (setting [2]) is above 1000 mg/kg. Moreover, the inhibition in vivo at 100 mg/kg in data set [1] came to 11%.
Turning to `CCNC(=O)[C@H](Cc1ccccc1)NC(=O)SCc1ccc(C)cc1` [Compound 5, N-(4-methylbenzylthiocarbonyl)-L-phenylalanine ethylamide], the median lethal dose (LD50) at 168 h in “Acute toxicity in mice” (setting [3]) was above 100 mg/kg; in “Acute toxicity in mice” (setting [2]) it was above 1000 mg/kg; in “Acute toxicity in rats”, above 100 mg/kg. For the same molecule, the inhibition in vivo at 100 mg/kg in data set [1] was determined as 0%.
As to `O=C(N[C@@H](Cc1ccccc1)C(=O)O)SCc1ccc(Cl)cc1` [Compound 7, N-(4-chlorobenzylthiocarbonyl)-L-phenylalanine], the LD50 at 168 h in “Acute toxicity in mice” (setting [3]) was above 100 mg/kg; in “Acute toxicity in mice” (setting [2]), above 300 mg/kg; in the data set “Acute toxicity in rats” it was above 100 mg/kg. For the same molecule, in data set [1], the inhibition in vivo at 100 mg/kg was found to be 94%.
As for `COC(=O)[C@H](Cc1ccccc1)NC(=O)SCc1ccc(Cl)cc1` [Compound 8, N-(4-chlorobenzylthiocarbonyl)-L-phenylalanine methylester], the median lethal dose (LD50) at 168 h is above 100 mg/kg in the data set “Acute toxicity in mice” (setting [3]), above 4000 mg/kg in “Acute toxicity in mice” (setting [2]) and above 200 mg/kg in the data set “Acute toxicity in rats”. For the same molecule, in data set [1], the inhibition in vivo at 100 mg/kg came out at 88%.
Take `COC(=O)[C@H](Cc1ccccc1)NC(=O)SCc1cc(C)ccc1C` [Compound 27, N-(2,5-dimethylbenzylthiocarbonyl)-L-phenylalanine methylester]: the LD50 at 168 h was above 1000 mg/kg in “Acute toxicity in mice” (setting [2]) and above 100 mg/kg in “Acute toxicity in rats”. In addition, in data set [1], the inhibition in vivo at 100 mg/kg was 30%. In addition, the “B - Ratio of decrease of liver weight” value with Cholesterol in the serum is given as -0.2%.
The like results for `Cc1ccc(C)c(CSC(=O)N[C@@H](Cc2ccccc2)C(=O)O)c1` [Compound 26, N-(2,5-dimethylbenzylthiocarbonyl)-L-phenylalanine] were, in that order, above 1000 mg/kg, above 100 mg/kg, 43% and 0.8%.
With `O=C(N[C@@H](Cc1ccccc1)C(=O)O)SCc1ccc(F)cc1` [Compound 33, N-(4-fluorobenzylthiocarbonyl)-L-phenylalanine], in “Acute toxicity in mice” (setting [2]), the 50% lethal dose (LD50) at 168 h is above 1000 mg/kg. In addition, the inhibition in vivo at 100 mg/kg in data set [1] worked out at 79%.
For `COC(=O)[C@H](Cc1ccccc1)NC(=O)SCc1cccc(C)c1` [Compound 23, N-(3-methylbenzylthiocarbonyl)-L-phenylalanine methylester], the median lethal dose (LD50) at 168 h in “Acute toxicity in mice” (setting [2]) is above 1000 mg/kg. For the same molecule, the inhibition in vivo at 100 mg/kg in data set [1] was 48%.
On to `COC(=O)[C@H](Cc1ccccc1)NC(=O)[C@H](Cc1ccccc1)NC(=O)SCc1ccc(C)cc1` [Compound 6, N-(4-methylbenzylthiocarbonyl)-L-phenylalanyl-L-phenylalanine methylester], for which the results for the LD50 at 168 h in the data set “Acute toxicity in mice” (setting [3]), in “Acute toxicity in mice” (setting [2]) and in the data set “Acute toxicity in rats” were above 100 mg/kg, above 300 mg/kg and above 100 mg/kg, respectively. Also, the inhibition in vivo at 100 mg/kg in data set [1] is 39%.
As for `Cc1ccc(CSC(=O)NC(Cc2ccccc2)C(=O)O)cc1` (racemic) [Compound 35, N-(4-methylbenzylthiocarbonyl)-DL-phenylalanine], the median lethal dose (LD50) at 168 h in “Acute toxicity in mice” (setting [2]) is above 1000 mg/kg. Moreover, in data set [1], the inhibition in vivo at 100 mg/kg came to 22%.
Regarding `CCOC(=O)[C@H](Cc1ccccc1)NC(=O)SCc1ccc(C)cc1` [Compound 3, N-(4-methylbenzylthiocarbonyl)-L-phenylalanine ethylester], the LD50 at 168 h in the data set “Acute toxicity in mice” (setting [2]) is above 1000 mg/kg. Moreover, the inhibition in vivo at 100 mg/kg in data set [1] worked out at 57%.
For the molecule `COC(=O)[C@H](Cc1ccccc1)NC(=O)[C@H](Cc1ccccc1)NC(=O)SCc1ccc(Cl)cc1` [Compound 11, N-(4-chlorobenzylthiocarbonyl)-L-phenylalanyl-L-phenylalanine methylester], the LD50 at 168 h in the data set “Acute toxicity in mice” (setting [3]) is above 100 mg/kg; in the data set “Acute toxicity in mice” (setting [2]) it was above 300 mg/kg; in the data set “Acute toxicity in rats” it was above 100 mg/kg. Further, the inhibition in vivo at 100 mg/kg in data set [1] amounted to 75%.
In the case of `COC(=O)[C@H](Cc1ccccc1)NC(=O)SCc1ccc(O)cc1` [Compound 37, N-(4-hydroxybenzylthiocarbonyl)-L-phenylalanine methylester], the LD50 at 168 h in the data set “Acute toxicity in mice” (setting [2]) was above 1000 mg/kg. In data set [1], the inhibition in vivo at 100 mg/kg is 74%.

In general, LD50 refers to the dose at which mortality reaches 50%.
